Experimental data reported in patent US20250186379A1, “METHODS AND AGENTS FOR DECREASING INSULIN RESISTANCE” (Whitehead Institute for Biomedical Research, priority 2021, published 2025).
“Also recorded” adds a separate entry of the source.

Columns and labels:
[1] = system: transcriptional condensates at SMAD7; test: IR-GFP and SMAD7 intronic RNA FISH colocalization in HepG2 cells; format: cell-based, human
[2] = system: SMAD7; test: SMAD7 transcript levels (RNA-seq, RT-qPCR) in HepG2 cells; format: cell-based, human
Experimental: RNA was extracted using TRIzol™ reagent following the manufacturer's instructions (Thermo Fisher Scientific, 15596026). cDNA synthesis was performed using qScript cDNA Supermix according to the manufacturer's instructions, using 1000 ng RNA as input (qScript cDNA SuperMix, QuantaBio—95048-500). qPCR was performed on a Thermo Fisher Scientific QuantStudio 6 machine using Fast SYBR™ Green Master Mix (Thermo Fisher Scientific 4385618). Expression data is presented after calculating the relative expression compared with the housekeeping gene RPLP0, using the equation Relative Quantification (RQ)=100/(2^(Target Gene Ct−RPLP0Ct). When data is reported relative to a sample condition, the condition of reference was set as 1 and the data of the other conditions were reported as a ratio (condition/condition of reference).
RNA sequencing was performed by the Whitehead Institute Genome Technology Core. Libraries were prepared using the KAPA HyperPrep stranded RNA kit following manufacturer's instructions. Samples were sequenced on a HiSeq2500 in High-Output mode generating 50 bases, single-end reads.
RNA-sequencing (RNA-seq) bioinformatics analysis was performed on the Whitehead High-Performance Computing Facility using the nf-core RNA-seq pipeline v1.4.2 (81) with Nextflow v20.04.1. Quality control of .fastq files was performed with FastQC v0.11.8. The reads were single-end and the strandedness was set to reverse. Low quality sequences were trimmed using Trim Galore!v0.6.4. Alignment was performed against the hg19 genome assembly using STAR v2.6.1d (85) and duplicates were marked using Picard MarkDuplicates v2.21.1. Quantification of transcripts using featureCounts v1.6.4 (86). Differential expression analysis was performed using edgeR v3.26.5 (87). deepTools v3.3.1 (88), dupRadar v1.14.0 (89), Qualimap v.2.2.2-dev (90), and MultiQC v1.7 were used for quality control. ERCC92 was used as RNA spike-in.

[3] = system: IR puncta; test: Immunofluorescence for IR in human primary adipocytes; format: cell-based; details: for IR incorporation into puncta: 3 nM insulin 5 minutes
Experimental: Primary pre-adipocytes from (ATCC, PCS-210-010) were cultured in Fibroblast Growth Kit-Low Serum (ATCC PCS-201-041), as per manufacturer's instructions. Cells for experiments were dissociated and plated at 18,000 cells/cm2. Two days later pre-adipocytes were differentiated in adipocyte differentiation media (ATCC PCS-500-050), as per manufacturer's instructions. Briefly, cells were washed and medium was replaced with adipocyte differentiation initiation medium. After 48 hours, half the medium was replaced. At day 4, medium was changed to adipocyte differentiation maintenance medium, and replaced every three days. At day 12, cells were rinsed and incubated in DMEM (Thermo Fisher, 11885084) with 0.1 or 3 nM of insulin for 5 days, replacing medium every other day. In the last 24 hours, 12.5 μM metformin was added. On day 17, cells were prepared for the assays by rinsing, and 30 minutes of washing. Afterwards, for imaging, cells were exposed to 3 nM insulin for 5 minutes, rinsed with PBS and fixed in 4% PFA for 15 minutes at room temperature. For pAKT ELISAs cells were exposed to 3 nM insulin for 15 minutes and harvested in cell lysis buffer (Cell Signaling Technology, #9803) with phosphatase inhibitor (Thermo Fisher Scientific, 78442).
For adipocytes, following differentiation, cells were cultured with EMEM for 2 days and with EMEM containing either physiological (0.1 nM) or pathological (3 nM) concentrations of insulin for 2 days. Cells were then cultured with EMEM containing either physiological (0.1 nM) or pathological (3 nM) of insulin or with pathological (3 nM) concentrations of insulin and 12.5 μM of metformin for 1 day. Cells were then washed with EMEM and acutely stimulated with or without 3 nM insulin for 5 minutes prior to cell collection for immunofluorescence or ELISA.
HepG2 cells, human liver spheroids, human primary adipocytes and human tissue liver sections were fixed in 4% PFA (VWR, BT140770-10X10) in PBS (Life Technologies, AM9625) for 10 minutes at room temperature. […]

[4] = insulin resistant cells, acute insulin stimulation

| Molecule | levels of IR in transcriptional condensates at SMAD7 [1, 4] | colocalization of IR-containing condensates with SMAD7 nascent RNA ([1]; insulin sensitive cells, 0 nM versus 3 nM insulin) | SMAD7 gene expression [2, 4] | SMAD7 expression ([2]; insulin sensitive cells, before and after insulin stimulation (RNA-seq)) | IR incorporation into puncta ([3]; insulin-resistant adipocytes) | IR incorporation into puncta ([3]; insulin-sensitive adipocytes) | IR levels in SMAD7 transcriptional condensates ([1]; metformin-treated insulin resistant cells, 3 nM insulin 5 min (FIG. 5D)) | SMAD7 gene expression ([2]; metformin-treated insulin resistant cells) | IR incorporation into puncta (IR signal) ([3]; insulin-resistant adipocytes, 12.5 μM metformin 1 day, 3 nM insulin 5 min) |
| --- | --- | --- | --- | --- | --- | --- | --- | --- | --- |
| insulin: insulin (Sigma Aldrich, I9278-5ML) used for acute stimulation and chronic physiological or pathological exposure | did not increase the levels of IR in transcriptional condensates; also recorded: did not cause increased levels of IR in transcriptional condensates | increased colocalization | nor did it cause upregulation of SMAD7 gene expression; also recorded: nor did it upregulate SMAD7 gene expression | upregulated | less able to promote further IR incorporation into puncta | promoted further IR incorporation into these puncta |  |  |  |
| CN(C)C(=N)N=C(N)N [metformin, reference compound] |  |  |  |  |  |  | increased | elevated | reversed |
